Patent publication US20160113282A1 (HONBU SANKEI CO., LTD., priority 2013, published 2016)

How the values were obtained:
[1] = test system: feline calicivirus F4 strain; assay: In vitro test in test tube, feline caliciviruses (Example 11); assay type: cell-based
[2] = test system: Herpes simplex virus type I VR-539; assay: Inactivation of herpesviruses, plaque assay on Vero cells; assay type: cell-based

For OCl [Sodium hypochlorite aqueous solution, sodium hypochlorite], the “number of infectious viruses” value ([1]; pH 7.5, 400 ppm, contact 1 min) was less than 2.0 log CPU/mL, the “number of infectious viruses” value ([1]; pH 7.5, 400 ppm, contact 5 min) was less than 2.0 log CPU/mL and the “number of infectious viruses” value ([1]; pH 7.5, 400 ppm, contact 10 min) was less than 2.0 log CPU/mL. For the same compound, the “number of infectious viruses” value ([1]; pH 8.5, 25 ppm, contact 0 min) was 4.7 ± 2.8 log CPU/mL, the “number of infectious viruses” value ([1]; pH 8.5, 50 ppm, contact 0 min) was 4.7 ± 2.8 log CPU/mL and the “number of infectious viruses” value ([1]; pH 8.5, 50 ppm, contact 1 min) was 4.6 ± 3.2 log CPU/mL. The “number of infectious viruses” value ([1]; pH 8.5, 50 ppm, contact 5 min) was 3.5 ± 2.1 log CPU/mL, the “number of infectious viruses” value ([1]; pH 8.5, 50 ppm, contact 10 min) was less than 2.0 log CPU/mL and the “number of infectious viruses” value ([1]; pH 8.5, 100 ppm, contact 0 min) was 4.7 ± 2.8 log CPU/mL. The “number of infectious viruses” value ([1]; pH 8.5, 100 ppm, contact 1 min) was 3.7 ± 2.6 log CPU/mL, the “number of infectious viruses” value ([1]; pH 8.5, 100 ppm, contact 5 min) was less than 2.0 log CPU/mL and the “number of infectious viruses” value ([1]; pH 8.5, 100 ppm, contact 10 min) was less than 2.0 log CPU/mL. The “number of infectious viruses” value ([1]; pH 8.5, 200 ppm, contact 0 min) was 4.7 ± 2.8 log CPU/mL, the “number of infectious viruses” value ([1]; pH 8.5, 200 ppm, contact 1 min) was 2.5 ± 2.3 log CPU/mL and the “number of infectious viruses” value ([1]; pH 8.5, 200 ppm, contact 5 min) was less than 2.0 log CPU/mL. For the same compound, the “number of infectious viruses” value ([1]; pH 8.5, 200 ppm, contact 10 min) was less than 2.0 log CPU/mL, the “number of infectious viruses” value ([1]; pH 8.5, 400 ppm, contact 0 min) was 4.7 ± 2.8 log CPU/mL and the “number of infectious viruses” value ([1]; pH 8.5, 400 ppm, contact 1 min) was less than 2.0 log CPU/mL. For the same compound, the “number of infectious viruses” value ([1]; pH 8.5, 400 ppm, contact 5 min) was less than 2.0 log CPU/mL, the “number of infectious viruses” value ([1]; pH 8.5, 400 ppm, contact 10 min) was less than 2.0 log CPU/mL and the “number of infectious viruses” value ([1]; pH unadjusted, 25 ppm, contact 0 min) was 6.4 ± 2.7 log CPU/mL. The “number of infectious viruses” value ([1]; pH unadjusted, 25 ppm, contact 10 min) was >10^6 log CPU/mL, the “number of infectious viruses” value ([1]; pH unadjusted, 50 ppm, contact 0 min) was 6.4 ± 2.7 log CPU/mL and the “number of infectious viruses” value ([1]; pH unadjusted, 50 ppm, contact 1 min) was 3.5 ± 2.1 log CPU/mL. For the same compound, the “number of infectious viruses” value ([1]; pH unadjusted, 50 ppm, contact 5 min) was 2.9 ± 2.7 log CPU/mL, the “number of infectious viruses” value ([1]; pH unadjusted, 50 ppm, contact 10 min) was less than 2.0 log CPU/mL and the “number of infectious viruses” value ([1]; pH unadjusted, 100 ppm, contact 0 min) was 6.4 ± 2.7 log CPU/mL. For the same compound, the “number of infectious viruses” value ([1]; pH unadjusted, 100 ppm, contact 1 min) was less than 2.0 log CPU/mL, the “number of infectious viruses” value ([1]; pH unadjusted, 100 ppm, contact 5 min) was less than 2.0 log CPU/mL and the “number of infectious viruses” value ([1]; pH unadjusted, 100 ppm, contact 10 min) was less than 2.0 log CPU/mL. The “number of infectious viruses” value ([1]; pH unadjusted, 200 ppm, contact 0 min) was 6.4 ± 2.7 log CPU/mL, the “number of infectious viruses” value ([1]; pH unadjusted, 200 ppm, contact 1 min) was less than 2.0 log CPU/mL and the “number of infectious viruses” value ([1]; pH unadjusted, 200 ppm, contact 5 min) was less than 2.0 log CPU/mL. For the same compound, the “number of infectious viruses” value ([1]; pH unadjusted, 200 ppm, contact 10 min) was less than 2.0 log CPU/mL, the “number of infectious viruses” value ([1]; pH unadjusted, 400 ppm, contact 0 min) was 6.4 ± 2.7 log CPU/mL and the “number of infectious viruses” value ([1]; pH unadjusted, 400 ppm, contact 1 min) was less than 2.0 log CPU/mL. The “number of infectious viruses” value ([1]; pH unadjusted, 400 ppm, contact 5 min) was less than 2.0 log CPU/mL, the “number of infectious viruses” value ([1]; pH unadjusted, 400 ppm, contact 10 min) was less than 2.0 log CPU/mL and the “sterilizing effect on herpesvirus type I” value ([2]; acidic conditions of pH 5.5 or lower) was “diminished”. The “Number of Residual Viruses in Test Solution/Number of Residual Viruses only with Buffer × 100 (%)” value ([2]; pH 4.5, 10 ppm) was 80%, the “Number of Residual Viruses in Test Solution/Number of Residual Viruses only with Buffer × 100 (%)” value ([2]; pH 4.5, 50 ppm) was 67.4% and the “Number of Residual Viruses in Test Solution/Number of Residual Viruses only with Buffer × 100 (%)” value ([2]; pH 4.5, 100 ppm) was 63.1%. For the same compound, the “Number of Residual Viruses in Test Solution/Number of Residual Viruses only with Buffer × 100 (%)” value ([2]; pH 4.5, 150 ppm) was 23.3%, the “Number of Residual Viruses in Test Solution/Number of Residual Viruses only with Buffer × 100 (%)” value ([2]; pH 4.5, 200 ppm) was 35.2% and the “Number of Residual Viruses in Test Solution/Number of Residual Viruses only with Buffer × 100 (%)” value ([2]; pH 5.5, 10 ppm) was 14.3%. For the same compound, the “Number of Residual Viruses in Test Solution/Number of Residual Viruses only with Buffer × 100 (%)” value ([2]; pH 5.5, 50 ppm) was 90.9%, the “Number of Residual Viruses in Test Solution/Number of Residual Viruses only with Buffer × 100 (%)” value ([2]; pH 5.5, 100 ppm) was 96.4% and the “Number of Residual Viruses in Test Solution/Number of Residual Viruses only with Buffer × 100 (%)” value ([2]; pH 5.5, 150 ppm) was less than 0.2%. For the same compound, the “Number of Residual Viruses in Test Solution/Number of Residual Viruses only with Buffer × 100 (%)” value ([2]; pH 5.5, 150 ppm, listed as sodium hypochlorite aqueous solution) was “below the detectable limit”, the “Number of Residual Viruses in Test Solution/Number of Residual Viruses only with Buffer × 100 (%)” value ([2]; pH 5.5, 200 ppm) was less than 0.5% and the “Number of Residual Viruses in Test Solution/Number of Residual Viruses only with Buffer × 100 (%)” value ([2]; pH 5.5, 200 ppm, listed as sodium hypochlorite aqueous solution) was “below the detectable limit”. The “Number of Residual Viruses in Test Solution/Number of Residual Viruses only with Buffer × 100 (%)” value ([2]; pH 6.5, 10 ppm) was less than 6%, the “Number of Residual Viruses in Test Solution/Number of Residual Viruses only with Buffer × 100 (%)” value ([2]; pH 6.5, 50 ppm) was less than 0.3% and the “Number of Residual Viruses in Test Solution/Number of Residual Viruses only with Buffer × 100 (%)” value ([2]; pH 6.5, 100 ppm) was less than 0.3%. The “Number of Residual Viruses in Test Solution/Number of Residual Viruses only with Buffer × 100 (%)” value ([2]; pH 6.5, 150 ppm) was less than 0.2%, the “Number of Residual Viruses in Test Solution/Number of Residual Viruses only with Buffer × 100 (%)” value ([2]; pH 6.5, 200 ppm) was less than 0.6% and the “Number of Residual Viruses in Test Solution/Number of Residual Viruses only with Buffer × 100 (%)” value ([2]; pH 7.5, 10 ppm) was 20%. The “Number of Residual Viruses in Test Solution/Number of Residual Viruses only with Buffer × 100 (%)” value ([2]; pH 7.5, 50 ppm) was less than 0.3%, the “Number of Residual Viruses in Test Solution/Number of Residual Viruses only with Buffer × 100 (%)” value ([2]; pH 7.5, 100 ppm) was less than 0.3% and the “Number of Residual Viruses in Test Solution/Number of Residual Viruses only with Buffer × 100 (%)” value ([2]; pH 7.5, 150 ppm) was less than 0.2%. For the same compound, the “Number of Residual Viruses in Test Solution/Number of Residual Viruses only with Buffer × 100 (%)” value ([2]; pH 7.5, 200 ppm) was less than 0.4%, the “Number of Residual Viruses in Test Solution/Number of Residual Viruses only with Buffer × 100 (%)” value ([2]; pH 8.5, 10 ppm) was 36% and the “Number of Residual Viruses in Test Solution/Number of Residual Viruses only with Buffer × 100 (%)” value ([2]; pH 8.5, 50 ppm) was less than 0.3%. For the same compound, the “Number of Residual Viruses in Test Solution/Number of Residual Viruses only with Buffer × 100 (%)” value ([2]; pH 8.5, 100 ppm) was less than 0.3%, the “Number of Residual Viruses in Test Solution/Number of Residual Viruses only with Buffer × 100 (%)” value ([2]; pH 8.5, 150 ppm) was less than 0.2% and the “Number of Residual Viruses in Test Solution/Number of Residual Viruses only with Buffer × 100 (%)” value ([2]; pH 8.5, 200 ppm) was less than 0.4%. The “concentration reducing HSV-I to below the detectable limit” value ([2]; pH conditions of 6.5-8.5) was no less than 50 ppm.
